Two compounds from patent publication US11716944B1, “Method for improving one-time seedling rate of microspore embryoids of brassica campestris SSP. chinensis makino” (Anhui Agricultural University, priority 2021, dated 2023) can be followed below.

In experiment [1] the test system is Brassica campestris ssp. Chinensis Makino. The experiment is described as follows: Effects of different concentrations of 6-BA sprayed onto flower buds on the embryogenesis rate. The class given is in vivo. Particulars: for embryogenesis rate increased by: compared with no 6-BA. Here is the method: In this example, a method for improving a one-time seedling rate of microspore embryoids of Brassica campestris ssp. Chinensis Makino included the steps of: • (1) pretreatment of flower bud • a concentration of 100 mg/L of 6-BA was sprayed onto a flower bud of a plant of Brassica campestris ssp. Chinensis Makino at a full-bloom stage after squaring; on the second day after the spraying of 6-BA, an inflorescence, which was specifically a main inflorescence or a healthy inflorescence of a primary branch of a plant without insect pests and cracked buds, was selected, placed in a self-sealing bag and sprayed with clean water, and then stored in a refrigerator at 4° C. for 1 day for later use; • (2) isolation of microspores • a flower bud with a petal length/anther length between 0.5-1 was selected, firstly sterilized with 70% alcohol for 30 s, then sterilized with 0.1% HgCl2 under shaking for 6 min, and then rinsed with sterilized water for 2 times, with each time for 5 min; then, the flower bud was crushed in a B5 medium with a glass rod to release microspores, and the microspores were filtered by a 300-mesh steel-wire mesh screen and a cell mesh screen successively; subsequently, a filtrate was collected into a centrifugal tube and centrifuged under the condition of 1,000 r/min for 3 min; and after the centrifuging, a pellet was resuspended with a B5 medium, and the resuspended solution was centrifuged again under the condition of 1,000 r/min for 3 min to obtain a pellet as the purified microspores desired for the objective; • (3) culture of microspores • the purified microspores were diluted with a NLN medium, and a cell density was adjusted to about 1.5 × 10^5 /mL^-1 (at this time, the medium was pale yellow); subsequently, the diluted purified microspores were subpackaged into culture dishes, and added with phytic acid PA at a concentration of 0.15%; and finally, the microspores were subjected to heat shock treatment at 33° C. for 24 h, then transferred to culture in the dark at 25° C., and placed onto a shaker for shaking culture after embryoids visible to naked eyes appeared; and • (4) germination and seedling of embryoids • the cultured embryoids in a cotyledon stage with a length of 2.8 mm were transferred onto a MS medium for differentiation culture, wherein culture conditions were 4° C., 14 h of illumination by blue-red compound light/day, and 14 days of culture; and then, the culture was continued under a condition of 25° C. and 14 h of illumination by blue-red compound light/day until seedling; wherein the ratio of blue light to red light in the blue-red compound light was 1:1. This example was used for verifying the effects of different concentrations of 6-BA on the embryogenesis rate of Brassica campestris ssp. Chinensis Makino: Method: in the pretreatment process of the flower buds, after squaring of Brassica campestris ssp. Chinensis Makino, at the full flowering stage, 6-BA solutions with concentrations of 0, 50, 100, 150 and 200 mg/L were prepared and sprayed onto the flower buds respectively, so as to study the effects of different concentrations of 6-BA on the embryogenesis rate of Brassica campestris ssp. Chinensis Makino (other steps were the same, and were conducted with reference to Example 3).

Experiment [2] has as its system purified microspores of Brassica campestris ssp. Chinensis Makino. Nature of the experiment: Effects of different concentrations of phytic acid PA added in microspore culture on the embryogenesis rate. The class given is cell-based. As to the method: In this example, a method for improving a one-time seedling rate of microspore embryoids of Brassica campestris ssp. Chinensis Makino included the steps of: • (1) pretreatment of flower bud • a concentration of 100 mg/L of 6-BA was sprayed onto a flower bud of a plant of Brassica campestris ssp. Chinensis Makino at a full-bloom stage after squaring; on the second day after the spraying of 6-BA, an inflorescence, which was specifically a main inflorescence or a healthy inflorescence of a primary branch of a plant without insect pests and cracked buds, was selected, placed in a self-sealing bag and sprayed with clean water, and then stored in a refrigerator at 4° C. for 1 day for later use; • (2) isolation of microspores • a flower bud with a petal length/anther length between 0.5-1 was selected, firstly sterilized with 70% alcohol for 30 s, then sterilized with 0.1% HgCl2 under shaking for 6 min, and then rinsed with sterilized water for 2 times, with each time for 5 min; then, the flower bud was crushed in a B5 medium with a glass rod to release microspores, and the microspores were filtered by a 300-mesh steel-wire mesh screen and a cell mesh screen successively; subsequently, a filtrate was collected into a centrifugal tube and centrifuged under the condition of 1,000 r/min for 3 min; and after the centrifuging, a pellet was resuspended with a B5 medium, and the resuspended solution was centrifuged again under the condition of 1,000 r/min for 3 min to obtain a pellet as the purified microspores desired for the objective; • (3) culture of microspores • the purified microspores were diluted with a NLN medium, and a cell density was adjusted to about 1.5 × 10^5 /mL^-1 (at this time, the medium was pale yellow); subsequently, the diluted purified microspores were subpackaged into culture dishes, and added with phytic acid PA at a concentration of 0.15%; and finally, the microspores were subjected to heat shock treatment at 33° C. for 24 h, then transferred to culture in the dark at 25° C., and placed onto a shaker for shaking culture after embryoids visible to naked eyes appeared; and • (4) germination and seedling of embryoids • the cultured embryoids in a cotyledon stage with a length of 2.8 mm were transferred onto a MS medium for differentiation culture, wherein culture conditions were 4° C., 14 h of illumination by blue-red compound light/day, and 14 days of culture; and then, the culture was continued under a condition of 25° C. and 14 h of illumination by blue-red compound light/day until seedling; wherein the ratio of blue light to red light in the blue-red compound light was 1:1. This example was used for verifying the effects of different concentrations of phytic acid PA on the embryogenesis rate of Brassica campestris ssp. Chinensis Makino: Method: in the process of microspore culture, the purified microspores subjected to density dilution were subpackaged into culture dishes, and added with phytic acid PA at concentrations of 0, 0.01%, 0.1%, 0.15%, 0.5% and 1% respectively, so as to study the effects of different concentrations of phytic acid PA on the embryogenesis rate of Brassica campestris ssp. Chinensis Makino (other steps were the same, and conducted with reference to Example 3).

For the compound `c1ccc(CNc2ncnc3[nH]cnc23)cc1` [6-BA], the Average embryogenesis rate in experiment [1] (6-BA 50 mg/L sprayed onto flower buds) stood at 0.92 embryo/bud; in experiment [1] (6-BA 100 mg/L sprayed onto flower buds), 1.56 embryo/bud; in experiment [1] (6-BA 150 mg/L sprayed onto flower buds) it was 1.08 embryo/bud; in experiment [1] (6-BA 200 mg/L sprayed onto flower buds), 0.74 embryo/bud. In addition, the “embryogenesis rate increased by” value in experiment [1] (6-BA 50 mg/L) turned out to be 38.46%; in experiment [1] (6-BA 100 mg/L), 100%; in experiment [1] (6-BA 150 mg/L), 17.95%. In experiment [1] (6-BA 200 mg/L, compared with that without application of the 6-BA solution), the “embryogenesis rate decreased by” value is 5.13%.
`O=P(O)(O)O[C@H]1[C@H](OP(=O)(O)O)[C@@H](OP(=O)(O)O)[C@H](OP(=O)(O)O)[C@@H](OP(=O)(O)O)[C@H]1OP(=O)(O)O` [PA, Phytic acid]: the Average embryogenesis rate in experiment [2] (PA 0.01% in medium) is reported as 0.774 embryo/bud; in experiment [2] (PA 0.1% in medium), 1.495 embryo/bud; in experiment [2] (PA 0.15% in medium), 1.137 embryo/bud; in experiment [2] (PA 0.5% in medium), 0.789 embryo/bud; in experiment [2] (PA 1% in medium) it was 0.487 embryo/bud. Also, the “embryogenesis rate increased by” value is listed as 21% in experiment [2] (PA 0.01%, compared with the medium without addition of PA); 134% in experiment [2] (PA 0.1%, compared with the medium without addition of PA); 78% in experiment [2] (PA 0.15%, compared with the medium without addition of PA); 23% in experiment [2] (PA 0.5%, compared with the medium without addition of PA). Also, the “embryogenesis rate decreased by” value in experiment [2] (PA 1%, compared with the medium without addition of PA) worked out at 24%.
